Assay results published in article PMC11509018, “Evaluation of the Role of Tanshinone I in an In Vitro System of Charcot-Marie-Tooth Disease Type 2N” (International Journal of Molecular Sciences, 2024).
Changes are numbered by the printed parent chain.

Columns and labels:
[1] = target: T1, AlaRS^E337K (Homo sapiens, UniProt P49588, E337K); assay: Proteolytic digestion assay (trypsin, SDS-PAGE); details: three hours
T1 construct: made in house; host or cells: E. coli BL21 (DE3), pET-21a
T1 sequence (P49588 1-968 E337K): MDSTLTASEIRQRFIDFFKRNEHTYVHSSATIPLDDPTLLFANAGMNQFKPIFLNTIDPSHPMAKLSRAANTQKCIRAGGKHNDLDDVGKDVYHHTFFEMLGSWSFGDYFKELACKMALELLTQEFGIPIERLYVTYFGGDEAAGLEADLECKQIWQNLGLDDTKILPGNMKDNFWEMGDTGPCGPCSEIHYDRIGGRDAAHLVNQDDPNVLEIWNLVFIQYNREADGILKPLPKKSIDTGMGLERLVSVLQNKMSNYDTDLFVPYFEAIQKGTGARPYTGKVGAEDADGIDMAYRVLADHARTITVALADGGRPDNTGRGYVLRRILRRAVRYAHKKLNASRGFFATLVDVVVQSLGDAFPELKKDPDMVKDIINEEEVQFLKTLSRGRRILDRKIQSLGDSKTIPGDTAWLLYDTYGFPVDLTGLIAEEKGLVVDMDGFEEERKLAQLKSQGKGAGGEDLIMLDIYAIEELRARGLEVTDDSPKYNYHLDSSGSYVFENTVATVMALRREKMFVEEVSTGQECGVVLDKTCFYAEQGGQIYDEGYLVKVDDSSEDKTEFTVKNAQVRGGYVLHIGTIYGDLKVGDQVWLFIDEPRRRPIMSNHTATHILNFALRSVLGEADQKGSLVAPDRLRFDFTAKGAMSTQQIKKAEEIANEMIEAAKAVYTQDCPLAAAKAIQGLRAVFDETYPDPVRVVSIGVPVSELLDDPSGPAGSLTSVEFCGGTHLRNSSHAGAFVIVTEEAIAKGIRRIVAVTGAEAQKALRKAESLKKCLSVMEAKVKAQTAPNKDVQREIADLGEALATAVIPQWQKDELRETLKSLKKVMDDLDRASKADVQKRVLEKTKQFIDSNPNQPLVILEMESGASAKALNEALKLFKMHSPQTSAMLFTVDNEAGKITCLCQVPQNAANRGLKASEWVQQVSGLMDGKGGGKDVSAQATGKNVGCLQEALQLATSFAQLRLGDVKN
Excerpt: (§1) Furthermore, we examined the interaction of Tanshinone I with additional AlaRS CMT mutants capable of binding to Nrp1 and causing conformational changes by BLI and proteolysis assays on additional related mutants.
(§2) Figure 5 BLI and proteolytic digestion assay of AlaRS mutants with Tanshinone I. Binding sensorgrams for the interaction of Tanshinone I with immobilized AlaRS^R329H (A), AlaRS^G102R (C), AlaRS^R326W (E), and AlaRS^E337K (G). Each sensorgram contains five curves generated from five different concentrations. The KD values are presented as the mean ± SD and experiments were performed in triplicate. The AlaRS^N71Y (B), AlaRS^G102R (D), AlaRS^R326W (F), and AlaRS^E337K (H) proteins (in the presence and absence of Tanshinone I) were incubated with trypsin at different concentrations for three hours before the reactions were quenched, and the products were separated by SDS-PAGE.

[2] = target: T2, AlaRS^G102R (Homo sapiens, UniProt P49588, G102R); assay: Proteolytic digestion assay (trypsin, SDS-PAGE); details: three hours
T2 construct: made in house; host or cells: E. coli BL21 (DE3), pET-21a
T2 sequence (P49588 1-968 G102R): T1 sequence (P49588 1-968 E337K) with G102R, K337E
Excerpt: as §1, §2

Cc1coc2c1C(=O)C(=O)c1c-2ccc2c(C)cccc12 [Tanshinone I]
Effect on proteolytic fragments / conformation [1]: altered band patterns after Tanshinone I treatment
Effect on proteolytic fragments / conformation [2]: more prominent bands at 1/100 after Tanshinone I treatment
